According to patent US20130224223A1, “Compositions and Methods for Treating Neurological Disorders” (GEORGIA REGENTS UNIVERSITY, priority 2007, published 2013):

How the values were obtained:
[1] = test system: prefrontal cortical slices; experiment: eIPSC recording in prefrontal cortical slices; type: cell-based, mice; conditions: for evoked IPSCs (eIPSCs): substance alone, no other exogenous agent, AG1478/AG879 5 mM [sic]
Procedure: Transverse prefrontal cortical slices (0.3 mm) were prepared from P28-P36 mice using a Vibroslice (Leica VT 10005) in the ice-cold solution, which contained 2.5 mM KCl, 1.25 mM NaH2PO4, 10 mM MgSO4, 0.5 mMCaCl2, 26 mM NaHCO3, 10 mM glucose, and 230 mM sucrose. Slices were allowed to recover for at least 2 hr in ACSF (1 hr at 34° C. followed by 1 hr at 22° C.) in a solution containing 126 mM NaCl, 2.5 mM KCl, 1.25 mM NaH2PO4, 2 mM MgSO4, 2 mM CaCl2, 26 mM NaHCO3, and 10 mM glucose. Slices were placed in the recording chamber and superfused (1.5 ml/min) with ACSF at 34° C. All solutions were saturated with 95% O2/5% CO2. Neurons were visualized with an IR-sensitive CCD camera with a 403 water-immersion lens (Zeiss, Axioskop2 Fsplus) and recorded using whole-cell voltage-clamp techniques (MultiClamp 7008 Amplifier, Digidata 1320A analog-to-digital converter) and pClamp 9.2 software (Axon Instruments). Glass pipettes were filled with the solution containing 125 mM Cs-gluconate, 10 mM CsCl, 1 mM MgCl2, 10 mM HEPES, 1 mM EGTA, 0.1 mM CaCl2, 10 mM sodium phosphocreatine, 4 mM Mg-ATP, 0.3 mM GTP, 0.2 mM leupeptin, and 5 mM lidocaine N-ethylchloride (QX314) (pH 7.2, with the osmolarity adjusted to 280 mOsm with sucrose). The resistance of pipettes was 2-3 MΩ For mIPSC recording, QX314 was omitted in the pipette filling solution, whereas […] was included in the superfusing solution. eIPSCs were generated with a two-concentric bipolar stimulating electrode ([…] pole separation; FHC, ME) positioned about […] from the neuron under recording. Single or paired pulses of 0.2 ms were delivered at 0.1 Hz and synchronized using a Mater-8 stimulator (A.M.P.I). The holding potential for both mIPSCs and eIPSCs was −65 mV. All experiments were done at 34° C. in the presence of 6-cyano-7-nitroquinoxaline-2,3-dione (CNQX, […]) and AP-5 ([…]) to block AMPA/NMDA receptors. Data were collected when series resistance fluctuated within 15% of initial values (8-15 MU), they were filtered at 2 kHz, and they were sampled at 10 kHz.

cortical slices = experiment: [3H]GABA release from prefrontal cortical slices; type: cell-based, mice; conditions: 20 mM KCl; for depolarization-evoked [3H]GABA release: substance alone, no other exogenous agent, AG1478/AG879 5 mM [sic]
Procedure: FIG. 2A is a line graph of [^3H]GABA release fraction/total fraction versus time (mins). Cortical slices were preloaded with [^3H]GABA for 30 min in the presence of b-alanine (1 mM), an inhibitor of [^3H]GABA uptake by glial cells, aminooxyacetic acid (0.1 mM), an inhibitor of GABA degradation, and nipecotic acid (1 mM), an inhibitor of the GABA transporter in neurons. Basal and depolarization (20 mM KCl)-evoked release of [^3H]GABA were monitored sequentially. Controls (open circles) and NRG1 (closed circles). FIG. 2B is a line graph of percent [^3H]GABA release versus NRG1 concentration (nM). Basal (open circles) K+ evoked (closed circles). […] FIG. 2D is a line graph of cumulative counts versus mIPSC amplitude (pA). Controls (open circles) and NRG1 (closed circles). FIG. 2E is a line graph of cumulative counts versus mIPSC interevent interval (ms). Controls (open circles) and NRG1 (closed circles). FIG. 2F is a bar graph of mIPSC (percent) in control and NRG1 treated pyramidal neurons in prefrontal cortical slices (n=12). Amplitude (clear) and Frequencies (hatched). FIG. 2G is a bar graph of percent eIPSC amplitude in prefrontal cortical slices treated with NRG1 versus control or washout. n=12, *p<0.01. Representative eIPSCs of control, NRG1-treated, or NRG1-treated/washed slices are shown on top. FIG. 2H is a line graph of percent eIPSC amplitude versus NRG1 (nM). n=6, *p<0.05, **p<0.01. FIG. 2I is a bar graph of K^+ evoked [^3H]GABA release (percent) (left axis, clear rectangles) and eIPSC amplitude (percent) (right axis, hatched rectangles) in prefrontal cortical slices treated with NRG1, denature NRG1, or BDNF. n=8 for [^3H]GABA release; for eIPSCs, n=6 for control, NRG1, and denatured NRG1, and n=4 for BDNF. *p<0.05, #p<0.05; **p<0.05, ##<0.01.
NRG1 may regulate GABAergic neurotransmission. To test this hypothesis, the effects of NRG1 on GABA release in cortical slices were determined by both biochemical and electrophysiological approaches. Basal [^3H]GABA release was low, at a rate of 3.75±0.35% (n=8) of total radioactivity per 10 min (FIG. 2A). Treatment of slices with 20 mM KCl, a condition known to depolarize neurons, increased [^3H]GABA release by 2.5-3.5 folds within 10 min (FIG. 2A). NRG1 had no effect on basal [^3H]GABA release; by contrast, it increased depolarization-evoked GABA release in a dose-dependent manner (FIG. 2B). […] Furthermore, the NRG regulation remained unchanged in the presence of antagonists of metabotropic glutamate receptors, cholinergic receptors, serotonin receptors, adrenergic receptors and/or dopamine receptors. As a control, BDNF decreased depolarization-evoked GABA release and eIPSCs in cortical slices, in agreement with earlier studies (Canas, et al., Brain Res, 1016:72-78 (2004); Frerking, et al., J Neurophysiol, 80:3383-3386 (1998)).

[2] = test system: PV-Cre;ErbB4−/− and PV-Cre;ErbB4+/+ mice; experiment: pre-pulse inhibition (PPI) test; type: in vivo; conditions: 3 mg/kg
Description: FIG. 16A is a bar graph showing the baseline startle response (startle amplitude) for PV-Cre;ErbB4+/+ (white bar, n=7) and PV-Cre;ErbB4−/− (hatched bar, n=6) mice under no stimulus, 70 dB (−) and startle stimulus, 120 dB (+), respectively; P>0.05). FIG. 16B is bar graph showing pre-pulse inhibition (%) for PV-Cre;ErbB4+/+ (white bar, n=7) and PV-Cre;ErbB4−/− (hatched bar, n=6) mice at three different levels of pre-pulse (75 dB, 80 dB, 85 dB), P=0.004. PPI=100−100%×(PPx/P120), in which PPx was the amplitude of the startle response after each pre-pulse and P120 was basal startle amplitude. FIG. 16C is a bar graph showing pre-pulse inhibition (%) for PV-Cre;ErbB4+/+ and PV-Cre;ErbB4−/− mice at three different levels of pre-pulse (75 dB, white bars) (80 dB, hatched bars), (85 dB, stippled bars), treated with vehicle or 3 mg/kg diazepam. Repeated measures, * P<0.05, # P=0.573. For vehicle treatment, n=10 and 12 for PV-Cre;ErbB4−/− mice and PV-Cre;ErbB4+/+ littermates, respectively; for diazepam treatment, n=9 and 11 for PV-Cre; ErbB4−/− and PV-Cre;ErbB4+/+, respectively. […]

## CC(C)(C)c1cc(/C=C(\C#N)C(N)=S)cc(C(C)(C)C)c1O [AG879]
[1]
  evoked IPSCs (eIPSCs): no detectable effect
[1]; substance given with exogenous NRG1 (5 nM)
  NRG1 potentiation of eIPSCs: no detectable effect
Cortical slices
  depolarization-evoked [3H]GABA release: no detectable effect
Cortical slices; substance given with exogenous NRG1
  NRG1-enhanced evoked GABA release: no detectable effect

## CN1C(=O)CN=C(c2ccccc2)c2cc(Cl)ccc21 [diazepam]
[2]; acute administration, mutant mice
  PPI in PV-Cre;ErbB4−/− mice: significantly enhanced
[2]; after 30-min treatment, PV-Cre;ErbB4+/+ littermates
  PPI in control mice: no effect

B1: BDNF: BDNF, a gift from Regeneron; used as a control (protein, UniProt P23560 19-247, looked up)
Neurotrophic factor BDNF …: APMKEANIRGQGGLAYPGVRTHGTLESVNGPKAGSRGLTSLADTFEHVIEELLDEDQKVRPNEENNKDADLYTSRVMLSSQVPLEPPLLFLLEEYKNYLDAANMSMRVRRHSDPARRGELSVCDSISEWVTAADKKTAVDMSGGTVTVLEKVPVSKGQLKQYFYETKCNPMGYTKEGCRGIDKRHWNSQCRTTQSYVRALTMDSKKRIGWRFIRIDTSCVCTLTIKRGR
[1]
  evoked IPSCs (eIPSCs): decreased
Cortical slices
  depolarization-evoked [3H]GABA release: decreased
